Results taken from the supplement of paper PMC4862054.
Values joined by “and” are separate entries in the source; they are usually repeats but may differ in a detail not shown here. Equal values may be shown once.

How the values were obtained:
[1] = test system: BT-474; assay: normalised viability (% of control), CellTiter-Blue; higher = more viable cells (about 100 = DMSO control); conditions: incubation time: 72 h
Experimental: (§1)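 DSRT, CellTiter-Blue viability, 72 h incubation. Signal is normalised to DMSO and benzethonium chloride controls. Value is the normalised response at dose 3.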

[2] = test system: BT-549; assay: as above; conditions: incubation time: 72 h
Experimental: as §1

[3] = test system: CAL-120; assay: as above; conditions: incubation time: 72 h
Experimental: as §1

[4] = test system: CAL-148; assay: as above; conditions: incubation time: 72 h
Experimental: as §1

[5] = test system: CAL-51; assay: as above; conditions: incubation time: 72 h
Experimental: as §1

[6] = test system: CAL-85-1; assay: as above; conditions: incubation time: 72 h
Experimental: as §1

[7] = test system: DU-4475; assay: as above; conditions: incubation time: 72 h
Experimental: as §1

[8] = test system: HCC1599; assay: as above; conditions: incubation time: 72 h
Experimental: as §1

[9] = test system: HCC1937; assay: as above; conditions: incubation time: 72 h
Experimental: as §1

[10] = test system: HDQ-P1; assay: as above; conditions: incubation time: 72 h
Experimental: as §1

[11] = test system: Hs578T; assay: as above; conditions: incubation time: 72 h
Experimental: as §1

[12] = test system: MDA-MB-436; assay: as above; conditions: incubation time: 72 h
Experimental: as §1

[13] = test system: MDA-MB-453; assay: as above; conditions: incubation time: 72 h
Experimental: as §1

[14] = test system: MFM-223; assay: as above; conditions: incubation time: 72 h
Experimental: as §1

[15] = test system: SK-BR-3; assay: as above; conditions: incubation time: 72 h
Experimental: as §1

[16] = test system: BT-474; assay: drug sensitivity score (DSS), CellTiter-Glo (DSS (AUC-based score)); higher = stronger drug effect (viability inhibition or cytotoxicity); extreme values may be limits of the assay; conditions: incubation time: 72 h
Outline: (§2)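 The area under the fitted dose-response curve was used to calculate the drug sensitivity score. Cells from breast cancer lines were incubated for 72 h in 384-well plates with compound at 5 concentrations spaced 10-fold over a 10,000-fold range specific to each compound. Plates were read for CellTox Green and then CellTiter-Glo, and normalised to 0.1 % DMSO and a positive kill control.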

[17] = test system: CAL-148; assay: as above; conditions: incubation time: 72 h
Outline: as §2

[18] = test system: CAL-51; assay: as above; conditions: incubation time: 72 h
Outline: as §2

[19] = test system: CAL-85-1; assay: as above; conditions: incubation time: 72 h
Outline: as §2

[20] = test system: HCC1599; assay: as above; conditions: incubation time: 72 h
Outline: as §2

[21] = test system: HDQ-P1; assay: as above; conditions: incubation time: 72 h
Outline: as §2

[22] = test system: MCF-10A; assay: as above; conditions: incubation time: 72 h
Outline: as §2

[23] = test system: MDA-MB-231; assay: as above; conditions: incubation time: 72 h
Outline: as §2

[24] = test system: MDA-MB-436; assay: as above; conditions: incubation time: 72 h
Outline: as §2

[25] = test system: MDA-MB-453; assay: as above; conditions: incubation time: 72 h
Outline: as §2

[26] = test system: MDA-MB-468; assay: as above; conditions: incubation time: 72 h
Outline: as §2

[27] = test system: SK-BR-3; assay: as above; conditions: incubation time: 72 h
Outline: as §2

[28] = test system: MDA-MB-231; assay: normalised viability (% of control), CellTiter-Blue; higher = more viable cells (about 100 = DMSO control); conditions: 100 nM; incubation time: 72 h
Experimental: as §1

[29] = test system: MDA-MB-468; assay: as above; conditions: incubation time: 72 h
Experimental: as §1

SMILES | drug sensitivity score [16] | drug sensitivity score [17] | drug sensitivity score [18] | drug sensitivity score [19] | drug sensitivity score [20] | drug sensitivity score [21] | drug sensitivity score [22] | drug sensitivity score [23] | drug sensitivity score [24] | drug sensitivity score [25] | drug sensitivity score [26] | drug sensitivity score [27] | also measured
Cc1nc(Nc2ncc(C(=O)Nc3c(C)cccc3Cl)s2)cc(N2CCN(CCO)CC2)n1 [Dasatinib] | 11.4 | 0 | 11.8 | 8.17 | 0 | 14.9 | 15.9 | 14.2 | 0.821 | 0 | 4.01 | 0 | normalised viability ([1]; 10 nM): 117% and 108%; normalised viability ([2]; 10 nM): 91.5% and 93.8%; normalised viability ([3]; 10 nM): 93.2% and 80.5%; normalised viability ([4]; 1 nM): 98.7% and 85.7%; normalised viability ([5]; 1 nM): 100% and 106%; normalised viability ([6]; 1 nM): 100% and 99.7%; normalised viability ([7]; 1 nM): 105% and 111%; normalised viability ([8]; 10 nM): 105% and 123%; normalised viability ([9]; 10 nM): 87.7% and 94.3%; normalised viability ([10]; 1 nM): 92.8% and 87.5%; normalised viability ([11]; 10 nM): 77.6% and 80.5%; normalised viability ([12]; 10 nM): 102% and 88.7%; normalised viability ([13]; 1 nM): 100%; normalised viability ([14]; 10 nM): 91.8% and 88%; normalised viability ([15]; 10 nM): 89.4% and 82.9%
CS(=O)(=O)N1CCN(Cc2cc3nc(-c4cccc5[nH]ncc45)nc(N4CCOCC4)c3s2)CC1 [GDC-0941] | – | – | – | – | – | – | – | – | – | – | – | – | normalised viability ([1]; 100 nM): 102%; normalised viability ([2]; 100 nM): 92.8%; normalised viability ([3]; 100 nM): 75.5%; normalised viability ([4]; 10 nM): 85.6%; normalised viability ([5]; 10 nM): 109%; normalised viability ([6]; 10 nM): 90.7%; normalised viability ([7]; 10 nM): 108%; normalised viability ([8]; 100 nM): 69.2%; normalised viability ([9]; 100 nM): 99.1%; normalised viability ([10]; 10 nM): 101%; normalised viability ([11]; 100 nM): 89.1%; normalised viability [28]: 83.2%; normalised viability ([12]; 100 nM): 91.6%; normalised viability ([29]; 100 nM): 84.2%; normalised viability ([14]; 100 nM): 82%; normalised viability ([15]; 100 nM): 58.7%
Cc1cccc(-c2nn3c(c2-c2ccnc4ccc(C(N)=O)cc24)CCC3)n1 [Galunisertib] | 0 | 0 | 0.026 | 0 | 0 | 0 | 0 | 0 | 0 | 0 | 0 | 0 | –
COc1nc(N)nc2c1ncn2[C@@H]1O[C@H](CO)[C@@H](O)[C@@H]1O [Nelarabine] | 1.66 | 0 | 0 | 0 | 0 | 0 | 0 | 0 | 0.149 | 0 | 0 | 0 | normalised viability ([1]; 100 nM): 87.4% and 96.1%; normalised viability ([2]; 100 nM): 88.7% and 74.2%; normalised viability ([3]; 100 nM): 112% and 101%; normalised viability ([4]; 10 nM): 104% and 85.5%; normalised viability ([5]; 10 nM): 102% and 103%; normalised viability ([6]; 10 nM): 94.4% and 97.7%; normalised viability ([8]; 100 nM): 98.1% and 113%; normalised viability ([9]; 100 nM): 93.1% and 85.6%; normalised viability ([10]; 10 nM): 82.8% and 82.6%; normalised viability ([11]; 100 nM): 75.9% and 85.7%; normalised viability [28]: 92.8% and 89.7%; normalised viability ([12]; 100 nM): 90.6% and 83.6%; normalised viability ([13]; 10 nM): 97.4% and 102%; normalised viability ([29]; 100 nM): 104% and 97.9%; normalised viability ([14]; 100 nM): 103% and 101%
CS(=O)(=O)N1CCN(Cc2cc3nc(-c4cccc5[nH]ncc45)nc(N4CCOCC4)c3s2)CC1 [Pictilisib] | 6.27 | 8.61 | 10.1 | 8.59 | 0 | 11.9 | 13.3 | 6.01 | 5.3 | 13.1 | 6.39 | 14.2 | –
O=C(NC[C@H](O)CO)c1ccncc1Nc1ccc(I)cc1F [Pimasertib] | 7.07 | 3.19 | 5.03 | 8.66 | 0 | 13 | 21.9 | 6.34 | 0.481 | 0 | 0 | 2.74 | –
Cn1cc(CNCC2CCN(c3ncc(C(=O)NO)cn3)CC2)c2ccccc21 [Quisinostat] | 13.7 | 18.3 | 12.1 | 16.4 | 12.5 | 10.3 | 11.5 | 13.2 | 9.76 | 23.3 | 13.6 | 19.3 | –
CC(C)N(CCCNC(=O)Nc1ccc(C(C)(C)C)cc1)C[C@H]1O[C@@H](n2cc(Br)c3c(N)ncnc32)[C@H](O)[C@@H]1O [SGC0946] | 0 | 0 | 0 | 0 | 0 | 0 | 0 | 0 | 0 | 0 | 2.46 | 0 | –
CNC(=O)c1cc(Oc2ccc(NC(=O)Nc3ccc(Cl)c(C(F)(F)F)c3)cc2)ccn1 [Sorafenib] | 0 | 0 | 0 | 0 | 0 | 0 | 0 | 0 | 0 | 0 | 0 | 0 | normalised viability ([1]; 10 nM): 114% and 99.3%; normalised viability ([3]; 10 nM): 102% and 96%; normalised viability ([4]; 1 nM): 102% and 90%; normalised viability ([5]; 1 nM): 114% and 99%; normalised viability ([6]; 1 nM): 96.3% and 109%; normalised viability ([7]; 1 nM): 118% and 131%; normalised viability ([8]; 10 nM): 113% and 129%; normalised viability ([9]; 10 nM): 83.9% and 84.5%; normalised viability ([10]; 1 nM): 105% and 91.4%; normalised viability ([11]; 10 nM): 90% and 86.3%; normalised viability ([12]; 10 nM): 110% and 113%; normalised viability ([13]; 1 nM): 103% and 109%; normalised viability ([29]; 10 nM): 114% and 97.8%; normalised viability ([14]; 10 nM): 94.7% and 95%
